Test results as given in ChEMBL document CHEMBL3217540, “New 3-amidinophenylalanine-derived inhibitors of matriptase” (Medchemcomm, 2012).

Tests used:
[1] = target: T1, Suppressor of tumorigenicity 14 protein (Homo sapiens, UniProt Q9Y5Y6); assay: Inhibition of matriptase (unknown origin) using MeSO2-D-Cha-Gly-Arg-pNA as substrate
T1 sequence (Q9Y5Y6 whole entry): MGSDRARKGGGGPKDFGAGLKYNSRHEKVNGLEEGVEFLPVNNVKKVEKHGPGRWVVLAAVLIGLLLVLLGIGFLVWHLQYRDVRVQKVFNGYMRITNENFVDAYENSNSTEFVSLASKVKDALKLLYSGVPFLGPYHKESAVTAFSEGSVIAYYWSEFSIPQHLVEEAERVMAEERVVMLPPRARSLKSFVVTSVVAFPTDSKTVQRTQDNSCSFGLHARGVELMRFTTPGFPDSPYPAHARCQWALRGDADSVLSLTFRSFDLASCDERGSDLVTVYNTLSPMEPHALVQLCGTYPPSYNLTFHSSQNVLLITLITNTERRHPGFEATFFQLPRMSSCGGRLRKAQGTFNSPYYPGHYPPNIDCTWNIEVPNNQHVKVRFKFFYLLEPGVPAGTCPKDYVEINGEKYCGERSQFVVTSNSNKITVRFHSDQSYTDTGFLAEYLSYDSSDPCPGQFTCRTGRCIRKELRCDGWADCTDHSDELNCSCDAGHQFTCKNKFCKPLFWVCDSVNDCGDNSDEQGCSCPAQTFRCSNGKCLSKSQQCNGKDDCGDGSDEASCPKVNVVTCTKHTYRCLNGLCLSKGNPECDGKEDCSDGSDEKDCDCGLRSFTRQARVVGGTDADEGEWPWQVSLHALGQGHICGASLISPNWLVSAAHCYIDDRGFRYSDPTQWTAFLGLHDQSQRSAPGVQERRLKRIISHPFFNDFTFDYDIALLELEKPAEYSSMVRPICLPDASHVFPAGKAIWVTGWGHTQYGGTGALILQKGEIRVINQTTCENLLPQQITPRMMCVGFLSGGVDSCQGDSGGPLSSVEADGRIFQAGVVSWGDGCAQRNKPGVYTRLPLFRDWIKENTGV

Coagulation factor X = Coagulation factor X (Homo sapiens, UniProt P00742); assay: Inhibition of human factor 10a using CH3OCO-D-Cha-Gly-Arg-pNA as substrate
Chain of Coagulation factor X (P00742 41-179 limits assumed): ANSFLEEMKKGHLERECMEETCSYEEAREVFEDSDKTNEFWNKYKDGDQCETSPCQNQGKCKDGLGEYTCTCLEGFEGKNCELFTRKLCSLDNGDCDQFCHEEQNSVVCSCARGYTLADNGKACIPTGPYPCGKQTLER
Chain of Coagulation factor X (P00742 235-488 limits assumed): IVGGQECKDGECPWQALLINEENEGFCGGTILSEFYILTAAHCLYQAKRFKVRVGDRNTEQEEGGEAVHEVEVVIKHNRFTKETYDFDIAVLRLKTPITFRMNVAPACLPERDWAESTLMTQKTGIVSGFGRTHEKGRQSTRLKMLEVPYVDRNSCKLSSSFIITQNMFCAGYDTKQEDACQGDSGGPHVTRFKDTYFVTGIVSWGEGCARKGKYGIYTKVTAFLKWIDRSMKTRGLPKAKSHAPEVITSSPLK

Prothrombin = Prothrombin (Bos taurus, UniProt P00735); assay: Inhibition of bovine thrombin using MeSO2-D-Cha-Gly-Arg-pNA as substrate
[2] = target: T2, Transmembrane protease serine 6 (Homo sapiens, UniProt Q8IU80); assay: Inhibition of matriptase-2 (unknown origin) expressed in HEK293 cells using ln-Ala-Arg-a-Arg-para-nitroanilide as substrate by UV-vis spectrophotometry; format: cell-based
T2 sequence (Q8IU80 whole entry): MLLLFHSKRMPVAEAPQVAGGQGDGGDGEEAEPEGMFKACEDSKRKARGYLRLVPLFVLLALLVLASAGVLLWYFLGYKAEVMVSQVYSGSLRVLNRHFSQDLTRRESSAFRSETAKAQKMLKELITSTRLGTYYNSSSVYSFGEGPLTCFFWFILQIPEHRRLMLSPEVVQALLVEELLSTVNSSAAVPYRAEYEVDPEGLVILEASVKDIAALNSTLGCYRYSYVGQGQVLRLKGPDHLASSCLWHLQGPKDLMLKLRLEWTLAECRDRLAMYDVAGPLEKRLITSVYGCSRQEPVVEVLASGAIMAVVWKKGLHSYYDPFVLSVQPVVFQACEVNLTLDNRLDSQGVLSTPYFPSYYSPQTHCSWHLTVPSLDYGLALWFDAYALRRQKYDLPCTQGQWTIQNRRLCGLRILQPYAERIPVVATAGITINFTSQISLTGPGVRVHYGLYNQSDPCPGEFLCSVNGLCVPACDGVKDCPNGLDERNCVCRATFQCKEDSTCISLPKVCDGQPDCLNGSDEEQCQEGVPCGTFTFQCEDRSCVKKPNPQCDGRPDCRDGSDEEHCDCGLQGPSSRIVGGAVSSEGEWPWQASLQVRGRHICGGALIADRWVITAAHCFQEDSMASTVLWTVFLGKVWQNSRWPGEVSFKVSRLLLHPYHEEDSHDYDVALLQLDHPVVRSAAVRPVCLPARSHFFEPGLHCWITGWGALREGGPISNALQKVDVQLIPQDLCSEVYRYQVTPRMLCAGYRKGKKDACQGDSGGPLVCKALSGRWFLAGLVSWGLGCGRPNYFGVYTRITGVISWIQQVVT

[3] = target: Urokinase-type plasminogen activator (Homo sapiens, UniProt P00749); assay: Inhibition of human uPA using Bzbeta-Ala-Gly-Arg-pNA as substrate
[4] = Inhibition of recombinant human airway trypsin-like protease by fluorescence assay
[5] = Selectivity ratio of Ki for bovine thrombin to Ki for matriptase (unknown origin)

CCOc1ccc(-c2cccc(S(=O)(=O)N[C@@H](Cc3cccc(C(=N)N)c3)C(=O)N3CCC(CCN)CC3)c2)c(Cl)c1
Ki [1]: 0.013 µM | Ki (Coagulation factor X): 0.17 µM | Ki (Prothrombin): 0.4 µM | Ki [2]: 0.4 µM

CNC(=O)NC1CCN(C(=O)[C@H](Cc2cccc(C(=N)N)c2)NS(=O)(=O)c2cccc(NC(=O)CCN)c2)CC1
Ki [1]: 0.056 µM | Ki (Coagulation factor X): 14.1 µM | Ki (Prothrombin): 10.8 µM | Ki [2]: 1.3 µM

CCNC(=O)NC1CCN(C(=O)[C@H](Cc2cccc(C(=N)N)c2)NS(=O)(=O)c2cccc(NC(=O)CCN)c2)CC1
Ki [1]: 0.039 µM | Ki (Coagulation factor X): 8.89 µM | Ki (Prothrombin): 15.3 µM | Ki [2]: 2.4 µM

CCNC(=O)NCCC1CCN(C(=O)[C@H](Cc2cccc(C(=N)N)c2)NS(=O)(=O)c2cccc(NC(=O)CCN)c2)CC1
Ki [1]: 0.012 µM | Ki (Coagulation factor X): 4.79 µM | Ki (Prothrombin): 0.13 µM | Ki [2]: 0.46 µM

CNC(=O)NCCC1CCN(C(=O)[C@H](Cc2cccc(C(=N)N)c2)NS(=O)(=O)c2cccc(-c3ccc(Cl)cc3Cl)c2)CC1
Ki [1]: 0.0009 µM | Ki (Coagulation factor X): 0.029 µM | Ki (Prothrombin): 0.0002 µM | Ki [3]: 3.4 µM | Ki [2]: 0.073 µM | Ki [4]: 0.17 µM

N=C(N)c1cccc(C[C@H](NS(=O)(=O)c2cccc(NC(=O)CCN)c2)C(=O)N2CCC(NC(=O)NC3CCCCC3)CC2)c1
Ki [1]: 0.008 µM | Ki (Coagulation factor X): 1.2 µM | Ki (Prothrombin): 35.9 µM | Ki [2]: 0.79 µM

N=C(N)c1cccc(C[C@H](NS(=O)(=O)c2cccc(-c3cccc(F)c3)c2)C(=O)N2CCC(CCN)CC2)c1
Ki [1]: 0.052 µM | Ki (Coagulation factor X): 3.2 µM | Ki (Prothrombin): 0.04 µM | Ki [2]: 3.2 µM

N=C(N)c1cccc(C[C@H](NS(=O)(=O)c2cccc(NC(=O)CCN)c2)C(=O)N2CCC(NC(=O)Nc3ccccc3)CC2)c1
Ki [1]: 0.014 µM | Ki (Coagulation factor X): 3.41 µM | Ki (Prothrombin): 9.25 µM | Ki [2]: 1.3 µM

N=C(N)c1cccc(C[C@H](NS(=O)(=O)c2cccc(NC(=O)CCN)c2)C(=O)N2CCC(CCNC(N)=O)CC2)c1
Ki [1]: 0.014 µM | Ki (Coagulation factor X): 13.9 µM | Ki (Prothrombin): 0.14 µM | Ki [2]: 3.3 µM

CNC(=O)CCCC1CCN(C(=O)[C@H](Cc2cccc(C(=N)N)c2)NS(=O)(=O)c2cccc(-c3ccc(F)cc3)c2)CC1
Ki [1]: 0.12 µM | Ki (Coagulation factor X): 0.55 µM | Ki (Prothrombin): 0.001 µM | Ki [2]: 4.4 µM

CNC(=O)CCCC1CCN(C(=O)[C@H](Cc2cccc(C(=N)N)c2)NS(=O)(=O)c2cccc(-c3cccc(Cl)c3Cl)c2)CC1
Ki [1]: 0.051 µM | Ki (Coagulation factor X): 0.26 µM | Ki (Prothrombin): 0.004 µM | Ki [2]: 0.75 µM

N=C(N)c1cccc(C[C@H](NS(=O)(=O)c2cccc(NC(=O)CCN)c2)C(=O)N2CCC(NC(=O)NCc3ccccc3)CC2)c1
Ki [1]: 0.026 µM | Ki (Coagulation factor X): 2.45 µM | Ki (Prothrombin): 7.84 µM | Ki [2]: 1.1 µM

N=C(N)c1cccc(C[C@H](NS(=O)(=O)c2cccc(-c3ccc(F)cc3)c2)C(=O)N2CCC(CCN)CC2)c1
Ki [1]: 0.033 µM | Ki (Coagulation factor X): 1.12 µM | Ki (Prothrombin): 0.005 µM | Ki [2]: 3.2 µM

N=C(N)c1cccc(C[C@H](NS(=O)(=O)c2cccc(-c3ccc(Cl)cc3Cl)c2)C(=O)N2CCC(NC(=O)NC3CCCCC3)CC2)c1
Ki [1]: 0.0051 µM | Ki (Coagulation factor X): 0.02 µM | Ki (Prothrombin): 0.63 µM | Ki [3]: 18.1 µM | Ki [2]: 0.94 µM | Ki [4]: 2.7 µM | Ratio Ki [5]: > 500

CNC(=O)NCCC1CCN(C(=O)[C@H](Cc2cccc(C(=N)N)c2)NS(=O)(=O)c2cccc(-c3ccc(OC)cc3OC)c2)CC1
Ki [1]: 0.0018 µM | Ki (Coagulation factor X): 0.051 µM | Ki (Prothrombin): 0.0008 µM | Ki [3]: 4.4 µM | Ki [2]: 0.18 µM | Ki [4]: 0.11 µM

COc1ccc(-c2cccc(S(=O)(=O)N[C@@H](Cc3cccc(C(=N)N)c3)C(=O)N3CCC(NC(=O)NC4CCCCC4)CC3)c2)c(OC)c1
Ki [1]: 0.0027 µM | Ki (Coagulation factor X): 0.011 µM | Ki (Prothrombin): 1.23 µM | Ki [3]: 18.5 µM | Ki [2]: 1.42 µM | Ki [4]: 0.83 µM | Ratio Ki [5]: > 500

CNC(=O)CCCC1CCN(C(=O)[C@H](Cc2cccc(C(=N)N)c2)NS(=O)(=O)c2cccc(-c3ccc(Cl)c(Cl)c3)c2)CC1
Ki [1]: 0.074 µM | Ki (Coagulation factor X): 0.23 µM | Ki (Prothrombin): 0.003 µM | Ki [2]: 1.6 µM

CNC(=O)CCCC1CCN(C(=O)[C@H](Cc2cccc(C(=N)N)c2)NS(=O)(=O)c2cccc(-c3ccccc3F)c2)CC1
Ki [1]: 0.12 µM | Ki (Coagulation factor X): 1.1 µM | Ki (Prothrombin): 0.002 µM | Ki [2]: 3 µM

N=C(N)c1cccc(C[C@H](NS(=O)(=O)c2cccc(NC(=O)CCN)c2)C(=O)N2CCC(CCNC(=O)NCc3ccccc3)CC2)c1
Ki [1]: 0.017 µM | Ki (Coagulation factor X): 5.52 µM | Ki (Prothrombin): 0.23 µM | Ki [2]: 1.3 µM

CNC(=O)CCCC1CCN(C(=O)[C@H](Cc2cccc(C(=N)N)c2)NS(=O)(=O)c2cccc(-c3ccc(OC)cc3OC)c2)CC1
Ki [1]: 0.008 µM | Ki (Coagulation factor X): 0.06 µM | Ki (Prothrombin): 0.001 µM | Ki [2]: 0.77 µM

CNC(=O)NCCC1CCN(C(=O)[C@H](Cc2cccc(C(=N)N)c2)NS(=O)(=O)c2cccc(NC(=O)CCN)c2)CC1
Ki [1]: 0.007 µM | Ki (Coagulation factor X): 7.07 µM | Ki (Prothrombin): 0.04 µM | Ki [2]: 1.2 µM

N=C(N)c1cccc(C[C@H](NS(=O)(=O)c2cccc(NC(=O)CCN)c2)C(=O)N2CCC(CCNC(=O)NC3CCCCC3)CC2)c1
Ki [1]: 0.023 µM | Ki (Coagulation factor X): 6.45 µM | Ki (Prothrombin): 0.47 µM | Ki [2]: 1.8 µM

CNC(=O)CCCC1CCN(C(=O)[C@H](Cc2cccc(C(=N)N)c2)NS(=O)(=O)c2cccc(-c3cccc(F)c3)c2)CC1
Ki [1]: 0.13 µM | Ki (Coagulation factor X): 3.05 µM | Ki (Prothrombin): 0.006 µM | Ki [2]: 10 µM

N=C(N)c1cccc(C[C@H](NS(=O)(=O)c2cccc(-c3cccc(Cl)c3Cl)c2)C(=O)N2CCC(CCN)CC2)c1
Ki [1]: 0.011 µM | Ki (Prothrombin): 0.02 µM | Ki [2]: 0.21 µM

N=C(N)c1cccc(C[C@H](NS(=O)(=O)c2cccc(-c3ccc(Cl)c(Cl)c3)c2)C(=O)N2CCC(CCN)CC2)c1
Ki [1]: 0.018 µM | Ki (Prothrombin): 0.03 µM | Ki [2]: 0.58 µM

N=C(N)c1cccc(C[C@H](NS(=O)(=O)c2cccc(NC(=O)CCN)c2)C(=O)N2CCC(CCNC(=O)Nc3ccccc3)CC2)c1
Ki [1]: 0.011 µM | Ki (Coagulation factor X): 2.61 µM | Ki (Prothrombin): 0.44 µM | Ki [2]: 1.9 µM

CNC(=O)CCCC1CCN(C(=O)[C@H](Cc2cccc(C(=N)N)c2)NS(=O)(=O)c2cccc(-c3ccc(Cl)cc3Cl)c2)CC1
Ki [1]: 0.013 µM | Ki (Coagulation factor X): 0.032 µM | Ki (Prothrombin): 0.001 µM | Ki [2]: 0.35 µM

N=C(N)c1cccc(C[C@H](NS(=O)(=O)c2cccc(-c3ccccc3F)c2)C(=O)N2CCC(CCN)CC2)c1
Ki [1]: 0.023 µM | Ki (Coagulation factor X): 0.81 µM | Ki (Prothrombin): 0.04 µM | Ki [2]: 2.1 µM

N=C(N)c1cccc(C[C@H](NS(=O)(=O)c2cccc(NC(=O)CCN)c2)C(=O)N2CCC(NC(N)=O)CC2)c1
Ki [1]: 0.035 µM | Ki (Coagulation factor X): 16.9 µM | Ki (Prothrombin): 9.7 µM | Ki [2]: 3.9 µM

CCOc1ccc(-c2cccc(S(=O)(=O)N[C@@H](Cc3cccc(C(=N)N)c3)C(=O)N3CCC(CCCC(=O)NC)CC3)c2)c(Cl)c1
Ki [1]: 0.049 µM | Ki (Coagulation factor X): 0.18 µM | Ki (Prothrombin): 0.03 µM | Ki [2]: 1.3 µM

N=C(N)c1cccc(C[C@H](NS(=O)(=O)c2cccc(-c3ccc(Cl)cc3Cl)c2)C(=O)N2CCC(CCN)CC2)c1
Ki [1]: 0.002 µM | Ki (Coagulation factor X): 0.05 µM | Ki (Prothrombin): 0.02 µM | Ki [2]: 0.11 µM
